According to patent publication US11952379B2, “Small molecule modulators of PAR2 and uses thereof” (Arizona Board of Regents on Behalf of the University of …, priority 2018, dated 2024):

What was measured:
PAR2 [1] = molecular target: T1, PAR2 (Homo sapiens, UniProt P55085); assay: Inhibition of PAR2 response induced by 2at-LIGRL-NH2 (FIG. 1); assay type: cell-based; settings: antagonist against agonist 2at-LIGR1-NH2
T1 sequence (P55085 26-397): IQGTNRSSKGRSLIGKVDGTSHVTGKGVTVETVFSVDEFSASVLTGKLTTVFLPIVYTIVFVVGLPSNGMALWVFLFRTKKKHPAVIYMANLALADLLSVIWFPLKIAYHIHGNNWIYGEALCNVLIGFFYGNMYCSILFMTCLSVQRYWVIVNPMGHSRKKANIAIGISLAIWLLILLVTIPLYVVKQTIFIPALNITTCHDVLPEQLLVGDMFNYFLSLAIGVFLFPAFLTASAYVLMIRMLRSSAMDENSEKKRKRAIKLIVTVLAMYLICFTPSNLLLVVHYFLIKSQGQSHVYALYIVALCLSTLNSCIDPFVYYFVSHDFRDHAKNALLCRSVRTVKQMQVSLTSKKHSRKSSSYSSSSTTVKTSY

PAR2 [2] = molecular target: T2, PAR2 (Mus musculus, UniProt P55086); assay: Mechanical hypersensitivity / paw withdrawal response to PAR2 agonist 2AT injected into the hindpaw; assay type: in vivo; settings: mice
T2 construct: from tissue; host or cells: live mice, hindpaw
T2 sequence (P55086 26-399): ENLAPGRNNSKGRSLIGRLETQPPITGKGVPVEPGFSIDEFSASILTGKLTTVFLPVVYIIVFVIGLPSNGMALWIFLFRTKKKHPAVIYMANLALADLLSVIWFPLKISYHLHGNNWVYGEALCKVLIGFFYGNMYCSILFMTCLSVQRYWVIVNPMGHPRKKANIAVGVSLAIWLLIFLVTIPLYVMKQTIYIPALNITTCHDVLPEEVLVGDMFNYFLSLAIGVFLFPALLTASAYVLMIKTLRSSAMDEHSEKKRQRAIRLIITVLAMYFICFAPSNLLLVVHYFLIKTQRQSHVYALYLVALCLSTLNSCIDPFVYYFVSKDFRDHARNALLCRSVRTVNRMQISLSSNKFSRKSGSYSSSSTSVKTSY
Protocol: Experiments were conducted to test C781 in vivo in mice for its ability to block mechanical hypersensitivity (a pain measure) in response to a PAR2 agonist (2AT-LIGRL, also known as 2AT).
Animals were injected with 2at (black), 2at+C781(yellow), or C781 alone (green).
Animals were systemically treated with C781 or control and then local injected with 2at (black with control; yellow with C781) or with vehicle alone (green). […] This is important because previous PAR2 antagonists have not had systemic bioavailability and have only worked with very high doses via intravenous injection.

PAR2 [3] = molecular target: T2, PAR2; assay: 2AT-evoked hyperalgesic priming in the hindpaw; assay type: in vivo; settings: given locally into the mouse hindpaw; FIG. 3
[4] = system: PAR2-dependent MAPK signaling; assay: PAR2-dependent MAPK signaling (MAPK phosphorylation); assay type: cell-based
[5] = system: PAR2-dependent Ca^2+ signaling; assay: PAR2-dependent Ca2+ signaling; assay type: cell-based
Protocol: Addition of 1.75 μM of the potent PAR2 agonist 2at-LIGRL-NH2 (C134) induced Ca^2+ signaling in 50% of the cells within the experiment.

Compound | concentration at which the 2at-LIGR1-NH2-induced PAR2 response was fully limited / compound was effective (PAR2 [1]) | effect on 2at-induced paw withdrawal response (pain) (PAR2 [2]; C781 given intraperitoneally 30 min prior to 2AT injection into the hindpaw, FIG. 4) | effect on paw withdrawal response of compound alone (PAR2 [2]; C781 injected locally with vehicle alone (no 2at), FIG. 2) | effect on 2at-induced paw withdrawal response (pain) (PAR2 [2]; C781 locally administered into hindpaw together with 2at, FIG. 2) | effect on paw withdrawal response after vehicle injection (PAR2 [2]; systemically administered C781, local vehicle alone, FIG. 4) | effect on 2AT-evoked hyperalgesic priming (PAR2 [3]) | IC50 ([4]; response induced by 600 nM 2at-LIGRL-NH2 (100% response), 95% CI: 3.4 μM-21 μM, FIG. 5, read-out: IC50 for reduction of PAR2-dependent MAPK phosphorylation) | effect on PAR2-dependent Ca2+ signaling ([5]; administered with 1.75 μM 2at-LIGRL-NH2 (C134), FIG. 6) | paw withdrawal response (pain) induced by agonist (PAR2 [2]; 2at injected into hindpaw, lower numbers indicative of pain) | induction of MAPK phosphorylation ([4]; agonist at 600 nM, set as 100% response) | cells showing Ca2+ signaling ([5]; agonist at 1.75 μM, percent of the cells within the experiment)
CC(C)CC(=O)N[C@H]1CN(C(=O)c2ccco2)C2CN(CC3CCNCC3)C(=O)[C@H](CC(C)C)N2C1=O (stereo partly drawn) [C781] | 30 to 300 nM | reduced the 2at response | had no effect | reduced the 2at response | had no effect on vehicle treatment | blocked 2AT-evoked hyperalgesic priming | 8.5 µM | no significant effect |  |  | 
CC(C)CC(=O)N1C[C@H](NC(=O)c2csc(N)n2)C(=O)N2C1CN(CC1CCNCC1)C(=O)[C@@H]2CC(C)C (stereo partly drawn) [C732] | 100 to 300 nM |  |  |  |  |  |  |  |  |  | 
2-aminothiazol-LIGRL-NH2 [2at-LIGRL-NH2, reference compound] |  |  |  |  |  |  |  |  | induced a rapid withdrawal response | induced significant phosphorylation of MAPK | 50%
